Measured values published in patent US3984432A, “Color photographic recording material” (priority 1973, dated 1976).

What was measured:
[1] = Solubility of coupling agents in tricresyl phosphate (oil) at 20° C (Table A); assay type: physicochemical
[2] = Absorption maximum after colour development in a photographic silver halide layer according to Use Example I; assay type: physicochemical; conditions: for Abs.max., first of two maxima (subsidiary maximum) / Abs.max., second of two maxima (absorption maximum): pyrazolone coupling agents
Method in brief: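 Coupling agent dispersed in tricresyl phosphate with gelatine at pH 6.5, mixed with silver bromide emulsion and hardener, cast on glass plates and dried at 32° C. Strips exposed to 500 Lux/cm^2 under a step wedge for 2 seconds, then processed at 24° C; absorption maximum read after colour development.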

Row | Solubility in g per g of tricresyl phosphate [1] | SMILES | Abs.max. (single maximum) [2] [nm] | Abs.max., first of two maxima (subsidiary maximum) [2] [nm] | Abs.max., second of two maxima (absorption maximum) [2] [nm]
1 | 0.4 g per g of tricresyl phosphate | CCCCCCCCCCCCOc1cccc(OC(CC)C(=O)Nc2cccc(C(=O)NC3=NN(c4c(Cl)cc(Cl)cc4Cl)C(=O)C3)c2)c1 (stereo not shown) |  |  | 
2 | 0.7 g per g of tricresyl phosphate | CCCCCCCCCCCCCCCc1cccc(OC(CC)C(=O)Nc2cc(Cl)c(C)c(Cl)c2O)c1 (stereo not shown) |  |  | 
3 | 1 g per g of tricresyl phosphate | CCCCCCCCCCOc1cccc(OCCC(=O)Nc2cccc(NC(=O)CC(=O)c3ccccc3C)c2)c1 [DT-OS 2,039,970] |  |  | 
4 | > 5 g per g of tricresyl phosphate | CCCCC(CC)COP(=O)(CCCNC(=O)c1ccc(Cl)c(NC(=O)CC(=O)C(C)(C)C)c1)OCC(CC)CCCC (stereo not shown) [(135)] | 445 |  | 
5 | 0.7 g per g of tricresyl phosphate | CCCCCCCCCCCCOc1cccc(OC(CC)C(=O)Nc2cc(Cl)c(C)c(Cl)c2O)c1 (stereo not shown) |  |  | 
6 | 0.4 g per g of tricresyl phosphate | CCC(Oc1ccc(C(C)(C)CC)cc1C(C)(C)CC)C(=O)Nc1cc(Cl)c(C)c(Cl)c1O (stereo not shown) [US-PS 2,801,171 Coupling agent No. (4)] |  |  | 
7 | 1.2 g per g of tricresyl phosphate | CCCCCCCCCCCCCCCCCCNS(=O)(=O)c1ccc(N(CCCC)CCCC)c(NC(=O)CC(=O)c2ccccc2)c1 [DT-OS 1,522,414] |  |  | 
8 | 0.3 g per g of tricresyl phosphate | CCCCCCCCCCCCCCCc1cccc(OC(CC)C(=O)Nc2cccc(C(=O)NC3=NN(c4c(Cl)cc(Cl)cc4Cl)C(=O)C3)c2)c1 (stereo not shown) |  |  | 
9 | 0.6 g per g of tricresyl phosphate | CCC(C)(C)c1ccc(OCC(=O)Nc2cccc(C(=O)NC3=NN(c4c(Cl)cc(Cl)cc4Cl)C(=O)C3)c2)c(C(C)(C)CC)c1 |  |  | 
10 |  | CCCCC(CC)COP(=O)(CCCOc1cc(OCCCP(=O)(OCC(CC)CCCC)OCC(CC)CCCC)cc(C(=O)Nc2cccc(C(=O)NC3=NN(c4c(C)cc(C)cc4Cl)C(=O)C3)c2)c1)OCC(CC)CCCC (stereo not shown) [(263)] |  | 440 | 534
11 |  | CCOP(=O)(CCCOc1ccc(NC2=NN(c3cccc(Cl)c3)C(=O)C2)cc1)OCC [(406)] |  | 425 | 530
12 |  | CCOP(=O)(CCCOc1cccc(NC(=O)c2ccc3ccccc3c2O)c1)OCC [(601)] | 704 |  | 
13 |  | CCCCOP(=O)(CCCOc1cccc(C(=O)Nc2c(C)cc(C)c(N3N=C(Nc4ccc(Cl)cc4)CC3=O)c2C)c1)OCCCC [(426)] |  | 430 | 528
14 |  | CCCCOP(=O)(CCCOc1cc(OCCCP(=O)(OCCCC)OCCCC)cc(C(=O)Nc2ccc(NC(=O)CC(=O)C(C)(C)C)cc2)c1)OCCCC [(114)] | 431 |  | 
15 |  | CCOP(=O)(CCCOc1cc(OCCCP(=O)(OCC)OCC)cc(C(=O)Nc2ccc(C(=O)NC3=NN(c4c(Cl)cc(Cl)cc4Cl)C(=O)C3)cc2)c1)OCC [(208)] |  | 434 | 546
16 |  | CCCCOP(=O)(CCCC)Nc1cccc(NC(=O)c2cc(NC(=O)CC(=O)c3ccccc3)ccc2Cl)c1 (stereo not shown) [(141)] | 438 |  | 
17 |  | CCCCC(CC)COP(=O)(CCCOc1cccc(C(=O)Nc2cccc(NC3=NN(c4c(Cl)cc(Cl)cc4Cl)C(=O)C3)c2)c1)OCC(CC)CCCC (stereo not shown) [(422)] |  | 426 | 530
18 |  | CCCCOP(=O)(CCCc1ccc(NC(=O)CC(=O)c2ccccc2)cc1)OCCCC [(124)] | 436 |  | 
19 |  | COc1ccc(C(=O)CC(=O)Nc2cc(C(=O)NCCCP(=O)(OC(C)C)OC(C)C)ccc2C(=O)NCCCP(=O)(OC(C)C)OC(C)C)cc1 [(131)] | 442 |  | 
20 |  | CCOP(=O)(CCCOc1cccc(C(=O)Nc2cccc(C(=O)NC3=NN(c4c(Cl)cc(Cl)cc4Cl)C(=O)C3)c2)c1)OCC [(205)] |  | 434 | 542
21 |  | CCCCC(CC)COP(=O)(CCNC(=O)c1ccc(Cl)c(NC(=O)CC(=O)c2ccc(OC)cc2)c1)OCC(CC)CCCC (stereo not shown) [(134)] | 447 |  | 
22 |  | CCCCC(CC)COP(=O)(CCCOc1cccc(C(=O)Nc2cccc(NC3=NN(c4ccccc4)C(=O)C3)c2)c1)OCC(CC)CCCC (stereo not shown) [(421)] |  | 430 | 528
23 |  | CC(C)OP(=O)(CCCCCOc1cccc(C(=O)Nc2ccc(C(=O)NC3=NN(c4c(Cl)cc(Cl)cc4Cl)C(=O)C3)cc2)c1)OC(C)C [(244)] |  | 434 | 542
24 |  | CCCCOP(=O)(CCCOc1cc(OCCCP(=O)(OCCCC)OCCCC)cc(C(=O)Nc2cccc(NC(=O)CC(=O)C(C)(C)C)c2)c1)OCCCC [(115)] | 435 |  | 

Row | SMILES | Solubility in g per g of tricresyl phosphate [1] | Abs.max. (single maximum) [2] [nm] | Abs.max., first of two maxima (subsidiary maximum) [2] [nm] | Abs.max., second of two maxima (absorption maximum) [2] [nm]
25 | CCCCOP(=O)(CC(=O)Nc1cccc(NC(=O)CC(=O)c2ccccc2)c1)OCCCC [(109)] | > 5 g per g of tricresyl phosphate | 442 |  | 
26 | COc1ccc(C(=O)NCCCP(=O)(OC(C)C)OC(C)C)cc1NC(=O)CC(=O)c1ccccc1Cl [(128)] | > 5 g per g of tricresyl phosphate | 447 |  | 
